# Laboratory results: patent US20130337070A1, “Coated Nanoparticle Therapy for Skin Cancer” (University of Central Florida Research Foundation Inc., priority 2012, published 2013)
# Columns and labels:
# Caveolin-1 = Caveolin-1 expression, western blot; type: cell-based, human; conditions: for caveolin-1 expression after pretreatment, compared to CNP treated cells: melanoma cells pretreated with N-acetyl-L-cysteine (4 h) or apocynin (1 h), then CNP
# Protocol: FIG. 6 Expression of Caveolin-1 in melanoma cells. […] H2O2 was used as a positive control and a-tubulin as a loading control. Three independent experiments were performed.
# A375 melanoma cells [1] = assay: Extracellular hydrogen peroxide (Amplex Red); type: cell-based, human; conditions: A375, 1 h pre-incubation with 1 mM apocynin prior to CNP; 24 and 48 h
# Protocol: The Amplex Red reagent (10-acetyl-3,7-dihydroxyphenoaxine), in combination with horseradish peroxidase (HRP), can be used to detect hydrogen peroxide released from cells. H2O2-mediated oxidation of the reagent results in the fluorescent product resorufin. Subconfluent A375 tumor cells were treated with 150 μM CNP or pre-incubated with 1 mM apocynin in serumfree DMEM in 96-well plates for different time points. […] Furthermore, the generation of intracellular ROS was determined using 2?,7?-Dichlorodihydrofluorescein diacetate (H2DCF-DA), a dye that diffuses across the lipid membranes into cells and is subsequently oxidized by intracellular ROS forming the highly fluorescent DCF.
# [2] = test system: human dermal fibroblasts (HDF)
# Protocol: (§1) The activity of mitochondrial dehydrogenases, as indicator of cellular viability, results in the formation of a purple formazan dye. […] The medium was removed and the cells were lysed in dimethyl sulfoxide. The formazan formation was measured at 570 nm.
# [3] = test system: human endothelial cells (HMEC-1)
# Protocol: as §1
# cytochrome c = assay: Cytosolic cytochrome c, western blot; conditions: A375; CNP 12 and 24 h; H2O2 1 h; vs mock-treated controls
# A375 melanoma cells [4] = assay: Oxidized thiol groups (sulfenic acid), western blot; conditions: A375, 150 μM CNP 24 h or 1 mM H2O2 2 h, vs dimedone treated controls
# A375 melanoma cells [5] = assay: Carbonylated proteins in cells (OxyBlot); conditions: A375, 150 μM CNP 4-48 h or 250 μM H2O2
# caspase-3 = assay: Caspase-3 activity assay; type: cell-based, human; conditions: melanoma cells, 100 nM staurosporine 24 h, positive control
# Protocol: Cell pellets were suspended in cell lysis buffer and incubated on ice for 45 min. The lysate was vortexed every 15 min. After centrifugation at 11000×g for 15 min, supernatants were collected and immediately measured for protein concentration and caspase activity. Briefly, cell lysates (20 μg protein) were placed in 96-well plates and then the specific caspase substrate (Ac-DEVD-AMC for caspase-3) was added. Plates were incubated at 37° C. for 1 h and caspase activity was determined by fluorescence intensity with the excitation and emission wavelengths set at 380 nm and 440 nm, respectively.
# A375 melanoma cells [6] = assay: Intracellular ROS (DCF fluorescence), melanoma cells; conditions: A375, 5 μM doxorubicin, DCF over 90 min
# [7] = test system: human dermal fibroblasts (HDF); assay: Intracellular ROS (DCF fluorescence), fibroblasts; conditions: 150 μM CNP or 5 μM doxorubicin, DCF over 90 min
compound,measurement,setting,value
COc1cc(C(C)=O)ccc1O [apocynin],"caveolin-1 expression after pretreatment, compared to CNP treated cells",Caveolin-1,increased caveolin-1 expression
same,CNP mediated hydrogen peroxide generation after apocynin pre-incubation,A375 melanoma cells [1],downregulated
dextran-coated cerium oxide nanoparticles [CNP],cell viability,[2],not altered
same,cell viability,[3],not altered
CC(=O)N[C@@H](CS)C(=O)O [N-acetyl-L-cysteine],"caveolin-1 expression after pretreatment, compared to CNP treated cells",Caveolin-1,increased caveolin-1 expression
"OO [H2O2, hydrogen peroxide]",Cav-1 expression vs mock-treated control,"Caveolin-1; melanoma cells, CNP for 1 h, H2O2 for 1 h and 4 h",completely abrogated
same,cytosolic cytochrome c,cytochrome c,significant increase
same,oxidized thiols (sulfenic acid),A375 melanoma cells [4],similarlevel
same,amount of carbonylated proteins vs mock-treated cells,A375 melanoma cells [5],significantly increased
CN[C@@H]1C[C@H]2O[C@@](C)([C@@H]1OC)n1c3ccccc3c3c4c(c5c6ccccc6n2c5c31)C(=O)NC4 [staurosporine],caspase-3 activity,caspase-3,increased
COc1cccc2c1C(=O)c1c(O)c3c(c(O)c1C2=O)C[C@@](O)(C(=O)CO)C[C@@H]3O[C@H]1C[C@H](N)[C@H](O)[C@H](C)O1 [doxorubicin],intracellular ROS level,A375 melanoma cells [6],significantly increased
same,intracellular ROS level,[7],significantly increased
